Experimental data as given in PubChem BioAssay AID248 (DTP/NCI, 2004).
“And” between values parts separate entries of the source, which are not always exact repeats. Identical values can stand only once. Inconclusive results and toxic doses are left out.

Tested on: L1210 leukemia ip in BDF1 mice, survival T/C
Assay: NCI In Vivo Anticancer Drug Screen. Data for tumor model L1210 Leukemia (intraperitoneal) in B6D2F1 (BDF1) mice
Conditions: endpoint: mean survival time, higher = longer survival
In short: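 Tumor was transplanted into mice, which were then dosed with test compound or vehicle alone. Survival was recorded for each group, and the treated figure was expressed relative to the control figure.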

[1] = dose: 100.0 mg/kg/injection, schedule: Q01DX009 (ip), vehicle: Klucel (hydroxypropylcellulose) (HPC)
[2] = dose: 100.0 mg/kg/injection, schedule: Q04DX003 (ip), vehicle: saline with Tween-80
[3] = dose: 200.0 mg/kg/injection, schedule: Q04DX003 (ip), vehicle: saline with Tween-80
[4] = dose: 400.0 mg/kg/injection, schedule: Q04DX003 (ip), vehicle: saline with Tween-80
[5] = dose: 100.0 mg/kg/injection, schedule: Q01DX009 (ip), vehicle: saline with Tween-80
[6] = dose: 200.0 mg/kg/injection, schedule: Q01DX009 (ip), vehicle: saline with Tween-80
[7] = dose: 400.0 mg/kg/injection, schedule: Q01DX009 (ip), vehicle: saline with Tween-80
[8] = dose: 100.0 mg/kg/injection, schedule: Q04DX003 (ip), vehicle: saline
[9] = dose: 200.0 mg/kg/injection, schedule: Q04DX003 (ip), vehicle: saline
[10] = dose: 400.0 mg/kg/injection, schedule: Q04DX003 (ip), vehicle: saline
[11] = dose: 100.0 mg/kg/injection, schedule: Q01DX001 (ip), vehicle: saline
[12] = dose: 100.0 mg/kg/injection, schedule: Q01DX009 (ip), vehicle: saline
[13] = dose: 200.0 mg/kg/injection, schedule: Q01DX009 (ip), vehicle: saline
[14] = dose: 400.0 mg/kg/injection, schedule: Q01DX009 (ip), vehicle: saline
[15] = dose: 100.0 mg/kg/injection, schedule: Q01DX001 (ip), vehicle: other
[16] = dose: 200.0 mg/kg/injection, schedule: Q01DX001 (ip), vehicle: other
[17] = dose: 400.0 mg/kg/injection, schedule: Q01DX001 (ip), vehicle: other

O=C(COc1ccc(Cl)cc1)OCCO
T/C (dose: 100.0 mg/kg/injection, schedule: Q01DX001 (ip), vehicle: gum acacia): 90 % of control
T/C (dose: 200.0 mg/kg/injection, schedule: Q01DX001 (ip), vehicle: gum acacia): 96 % of control
T/C (dose: 400.0 mg/kg/injection, schedule: Q01DX001 (ip), vehicle: gum acacia): 95 % of control

N=C(N)c1ccc(OCCCCOc2ccc(N)cc2Cl)cc1
T/C (dose: 50.0 mg/kg/injection, schedule: Q01DX009 (ip), vehicle: Klucel (hydroxypropylcellulose) (HPC)): 111 % of control
T/C [1]: 97 % of control

O=C1NC(=O)C2CC=CCC12 (centres undefined)
T/C [2]: 101 % of control
T/C [3]: 106 % of control
T/C [4]: 106 % of control

NC(CCC(=O)NC(=O)OCc1ccccc1)C(=O)O (centres undefined)
T/C [5]: 102 % of control
T/C [6]: 100 % of control
T/C [7]: 97 % of control

COc1c(OC)c(C(C)C)c2c(c1C(=O)O)C(=O)OC2=O
T/C (dose: 100.0 mg/kg/injection, schedule: Q01DX001 (ip), vehicle: Klucel (hydroxypropylcellulose) (HPC)): 103 % of control
T/C (dose: 100.0 mg/kg/injection, schedule: Q04DX003 (ip), vehicle: Klucel (hydroxypropylcellulose) (HPC)): 96 % of control
T/C (dose: 200.0 mg/kg/injection, schedule: Q01DX001 (ip), vehicle: Klucel (hydroxypropylcellulose) (HPC)): 103 % of control
T/C (dose: 200.0 mg/kg/injection, schedule: Q04DX003 (ip), vehicle: Klucel (hydroxypropylcellulose) (HPC)): 88 % of control
T/C (dose: 400.0 mg/kg/injection, schedule: Q01DX001 (ip), vehicle: Klucel (hydroxypropylcellulose) (HPC)): 100 % of control
T/C (dose: 400.0 mg/kg/injection, schedule: Q04DX003 (ip), vehicle: Klucel (hydroxypropylcellulose) (HPC)): 89 % of control

CCc1ccc(N=C(C)c2c(O)cc(C)oc2=O)cc1
T/C [1]: 96 % of control
T/C (dose: 200.0 mg/kg/injection, schedule: Q01DX009 (ip), vehicle: Klucel (hydroxypropylcellulose) (HPC)): 100 % of control
T/C (dose: 400.0 mg/kg/injection, schedule: Q01DX009 (ip), vehicle: Klucel (hydroxypropylcellulose) (HPC)): 96 % of control

NC(=O)N(CCCCN(N=O)C(N)=O)N=O
T/C (dose: 40.0 mg/kg/injection, schedule: Q01DX001 (ip), vehicle: saline with Tween-80): 152 % of control
T/C (dose: 60.0 mg/kg/injection, schedule: Q01DX001 (ip), vehicle: saline with Tween-80): 178 % of control
T/C (dose: 93.0 mg/kg/injection, schedule: Q01DX001 (ip), vehicle: saline with Tween-80): 246 % of control
T/C (dose: 500.0 mg/kg/injection, schedule: Q01DX001 (ip), vehicle: saline with Tween-80): 90 % of control

O=C(O)c1cc(Cl)cc(F)c1Cl
T/C (dose: 100.0 mg/kg/injection, schedule: Q04DX002 (ip), vehicle: Klucel (hydroxypropylcellulose) (HPC)): 101 % of control
T/C (dose: 200.0 mg/kg/injection, schedule: Q04DX002 (ip), vehicle: Klucel (hydroxypropylcellulose) (HPC)): 105 % of control
T/C (dose: 400.0 mg/kg/injection, schedule: Q04DX002 (ip), vehicle: Klucel (hydroxypropylcellulose) (HPC)): 105 % of control

COc1ccc(Sc2cccc3c2C(=O)c2c(Sc4ccc(OC)cc4)cccc2C3=O)cc1
T/C [2]: 91 % of control
T/C [3]: 96 % of control
T/C [4]: 87 % of control

COc1cc2c(c(OC)c1OC)-c1ccc(O)c(=O)cc1C(N)CC2 (centres undefined)
T/C (dose: 6.25 mg/kg/injection, schedule: Q01DX009 (ip), vehicle: saline with Tween-80): 98 % of control
T/C (dose: 12.5 mg/kg/injection, schedule: Q01DX009 (ip), vehicle: saline with Tween-80): 100 % of control
T/C (dose: 25.0 mg/kg/injection, schedule: Q01DX009 (ip), vehicle: saline with Tween-80): 94 % of control

CC(=O)OC1CCP(C)(=O)C1 (centres undefined)
T/C [8]: 98 % of control
T/C [9]: 96 % of control
T/C [10]: 93 % of control

C=CC[n+]1cccc(S(=O)(=O)[O-])c1
T/C [8]: 101 % of control
T/C [9]: 98 % of control
T/C [10]: 103 % of control

O=C(c1ccccc1)c1cc(-c2cc(=O)cc(-c3cc(C(=O)c4ccccc4)c(O)cc3O)o2)c(O)cc1O
T/C [11]: 96 % of control
T/C (dose: 200.0 mg/kg/injection, schedule: Q01DX001 (ip), vehicle: saline): 105 % of control
T/C (dose: 400.0 mg/kg/injection, schedule: Q01DX001 (ip), vehicle: saline): 94 % of control

COc1cccc(-c2nc3ccccc3s2)c1OC
T/C (dose: 25.0 mg/kg/injection, schedule: Q04DX003 (ip), vehicle: DMSO): 88 % of control
T/C (dose: 50.0 mg/kg/injection, schedule: Q04DX003 (ip), vehicle: DMSO): 95 % of control
T/C (dose: 100.0 mg/kg/injection, schedule: Q04DX003 (ip), vehicle: DMSO): 92 % of control and 96 % of control

CC(=O)Oc1cccc2c1C(=O)c1ccccc1C2=O
T/C [12]: 103 % of control
T/C [8]: 103 % of control
T/C [13]: 103 % of control
T/C [9]: 97 % of control
T/C [14]: 104 % of control
T/C [10]: 103 % of control

O=S(=O)(O)CCC(CO)(CO)CO
T/C [12]: 98 % of control
T/C [8]: 101 % of control
T/C [13]: 102 % of control
T/C [9]: 101 % of control
T/C [14]: 101 % of control
T/C [10]: 97 % of control

Nc1ccc(-n2cnc3c(=O)[nH]c(N)nc32)cc1
T/C [2]: 98 % of control
T/C [3]: 98 % of control
T/C [4]: 92 % of control

O=C(OCCCCCCCOC(=O)c1cccc([N+](=O)[O-])c1)c1cccc([N+](=O)[O-])c1
T/C [15]: 98 % of control
T/C [16]: 101 % of control
T/C [17]: 107 % of control

NC1=NC=NC(c2ccccc2)N1c1ccccc1F (centres undefined)
T/C (dose: 25.0 mg/kg/injection, schedule: Q01DX001 (ip), vehicle: saline): 101 % of control
T/C (dose: 50.0 mg/kg/injection, schedule: Q01DX001 (ip), vehicle: saline): 96 % of control
T/C [11]: 104 % of control

Cc1nc(N)c2c(n1)C(Cc1ccccc1)N(C(=O)c1ccccc1)C2 (centres undefined)
T/C (dose: 100.0 mg/kg/injection, schedule: Q01DX001 (ip), vehicle: carboxymethylcellulose (CMC)): 97 % of control
T/C (dose: 200.0 mg/kg/injection, schedule: Q01DX001 (ip), vehicle: carboxymethylcellulose (CMC)): 97 % of control
T/C (dose: 400.0 mg/kg/injection, schedule: Q01DX001 (ip), vehicle: carboxymethylcellulose (CMC)): 103 % of control

COc1ccc(Cl)cc1NC(=O)Oc1ccc(SC)c(C)c1
T/C (dose: 100.0 mg/kg/injection, schedule: Q01DX001 (ip), vehicle: saline with Tween-80): 95 % of control
T/C [5]: 95 % of control
T/C (dose: 100.0 mg/kg/injection, schedule: Q04DX002 (ip), vehicle: saline with Tween-80): 97 % of control and 98 % of control
T/C (dose: 200.0 mg/kg/injection, schedule: Q01DX001 (ip), vehicle: saline with Tween-80): 91 % of control
T/C [6]: 98 % of control
T/C (dose: 200.0 mg/kg/injection, schedule: Q04DX002 (ip), vehicle: saline with Tween-80): 98 % of control and 89 % of control
T/C (dose: 400.0 mg/kg/injection, schedule: Q01DX001 (ip), vehicle: saline with Tween-80): 91 % of control
T/C [7]: 90 % of control
T/C (dose: 400.0 mg/kg/injection, schedule: Q04DX002 (ip), vehicle: saline with Tween-80): 92 % of control and 98 % of control

CNS(=O)(=O)c1ccc(NC(=O)CCl)cc1
T/C (dose: 50.0 mg/kg/injection, schedule: Q01DX009 (ip), vehicle: saline with Tween-80): 104 % of control
T/C [15]: 104 % of control
T/C [5]: 110 % of control
T/C (dose: 100.0 mg/kg/injection, schedule: Q04DX003 (ip), vehicle: other): 101 % of control
T/C [16]: 103 % of control
T/C [6]: 119 % of control
T/C (dose: 200.0 mg/kg/injection, schedule: Q04DX003 (ip), vehicle: other): 98 % of control
T/C [17]: 100 % of control

CC1=CCCC1
T/C [12]: 101 % of control
T/C [13]: 95 % of control
T/C [14]: 95 % of control

CC(C)(O)CC(O)(C(F)(F)F)C(F)(F)F
T/C (dose: 6.0 mg/kg/injection, schedule: Q01DX009 (ip), vehicle: other): 94 % of control
T/C (dose: 12.0 mg/kg/injection, schedule: Q01DX009 (ip), vehicle: other): 100 % of control
T/C (dose: 25.0 mg/kg/injection, schedule: Q01DX009 (ip), vehicle: other): 105 % of control and 106 % of control and 86 % of control
T/C (dose: 50.0 mg/kg/injection, schedule: Q01DX009 (ip), vehicle: other): 97 % of control
T/C (dose: 100.0 mg/kg/injection, schedule: Q01DX009 (ip), vehicle: other): 98 % of control
